The NIST ThermoML archive (doi:10.1016/j.tca.2015.02.020)

Experiment: molar heat capacity at constant pressure; xn = mol fraction of the nth substance listed
Conditions: 101 kPa, Liquid, Small sample (50 mg) DSC

NCCO [2-aminoethan-1-ol] + O
Conditions | molar heat capacity at constant pressure [J/K/mol]
207.9 K, x1 = 0.73 | 113.75
210.55 K, x1 = 0.19 | 71
211.06 K, x1 = 0.31 | 79.98
211.07 K, x1 = 0.23 | 73.71
212.29 K, x1 = 0.23 | 70.92
212.29 K, x1 = 0.31 | 77.16
212.64 K, x1 = 0.73 | 114.74
214.38 K, x1 = 0.23 | 74.55
214.38 K, x1 = 0.31 | 80.61
215.29 K, x1 = 0.19 | 72.31
217.03 K, x1 = 0.23 | 72.04
217.03 K, x1 = 0.31 | 78.1
217.38 K, x1 = 0.73 | 115.23
220.03 K, x1 = 0.19 | 73.62
221.01 K, x1 = 0.31 | 81.87
221.76 K, x1 = 0.23 | 73.15
221.77 K, x1 = 0.31 | 79.36
222.11 K, x1 = 0.73 | 115.72
224.33 K, x1 = 0.31 | 82.81
224.77 K, x1 = 0.19 | 74.66
226.51 K, x1 = 0.23 | 74.27
226.52 K, x1 = 0.31 | 80.3
226.86 K, x1 = 0.73 | 116.22
229.51 K, x1 = 0.19 | 75.97
230.97 K, x1 = 0.23 | 80.69
230.97 K, x1 = 0.31 | 84.38
231.24 K, x1 = 0.23 | 75.67
231.25 K, x1 = 0.31 | 81.24
231.6 K, x1 = 0.73 | 116.22
234.25 K, x1 = 0.19 | 77.02
234.28 K, x1 = 0.31 | 85.32
234.29 K, x1 = 0.23 | 81.25
235.99 K, x1 = 0.23 | 76.78
236 K, x1 = 0.31 | 82.81
236.34 K, x1 = 0.73 | 116.71
238.99 K, x1 = 0.19 | 78.07
240.72 K, x1 = 0.23 | 78.18
240.73 K, x1 = 0.31 | 84.06
240.93 K, x1 = 0.23 | 82.93
240.93 K, x1 = 0.31 | 87.2
241.08 K, x1 = 0.73 | 118.2
241.4 K, x1 = 0.19 | 78.86
243.73 K, x1 = 0.19 | 79.12
244.25 K, x1 = 0.23 | 84.04
244.25 K, x1 = 0.31 | 88.14
244.73 K, x1 = 0.19 | 80.17
245.47 K, x1 = 0.23 | 79.57
245.47 K, x1 = 0.31 | 85.63
245.83 K, x1 = 0.73 | 120.18
247.57 K, x1 = 0.23 | 85.16
247.57 K, x1 = 0.31 | 89.08
247.58 K, x1 = 0.19 | 81.21
248.48 K, x1 = 0.19 | 80.17
250.22 K, x1 = 0.23 | 80.69
250.23 K, x1 = 0.31 | 86.57
250.58 K, x1 = 0.73 | 122.15
